Where two headings read alike, the source gives them in different places.
Legend:
[1] = tested on: carbapenem-resistant bacterial strains
Description: For each strain tested, each PMBN concentration and each indicator carbapenem, the MIC measured is compared to that obtained in the absence of PMBN. In the light of the possible difference in MIC values, a prognosis for the mechanism of resistance developed by the strain tested is established by applying the following general premise: A decrease in MICIM/ETP in the presence of PMBN is an indication of carbapenem resistance by membrane impermeability. In any other case, another mechanism of resistance is implicated.
For the purposes of verifying the accuracy of the prognoses established and the relevance of the general premise mentioned above: • each strain was tested by Western blot with the view to detection of porins (in the case in point, of the OmpF and OmpC isoforms), and • for some of the strains tested, in particular those for which there remains a doubt as to the mechanism of resistance developed (prognosis established in contradiction with the results of the porin detection by Western blot), a test for detecting carbapenemases by means of the RAPIDEC® CARBA NP kit (bioMérieux, France) was also carried out.
As regards the results thus obtained, the characterization of the strains termed carbapenem resistant by membrane impermeability is established either by the absence of porins detected by Western blot, or by carbapenem resistance that is not linked to the presence of carbapenemase, verified by a molecular method (PCR) and/or by a phenotypic method (RAPIDEC® CARBA NP).
A second method of interpretation of the results compiled in table 3 is proposed here. The prognosis system is based on the following “refined” premise: A decrease in MICIM/ETP, in the presence of PMBN, by at least a factor of 4 (that is to say with a difference in MIC of 2 doubling dilutions), is the signal of carbapenem resistance by membrane impermeability. If not, another mechanism of resistance is implicated.

[2] = tested on: Enterobacter aerogenes EA 2 (porin+); assay: Etest MIC of indicator carbapenems on MH II agar without/with PMBN; assay type: cell-based; settings: Klebsiella aerogenes, EA 2 (porin+), read-out: MIC
Protocol: (§1) The determinations of antibiotic MIC were carried out on solid culture media with the Etest® method. To do this, Etest® strips (bioMérieux, France) were used: • Etest® Imipenem IM 32, and • Etest® Ertapenem ETP 32, and also solid culture media, differing from one another by virtue of their non-inhibitory concentrations of PMBN.
(§2) These solid culture media are prepared in Petri dishes (0=145 mm; V=50 ml) on a base of MH II Agar (Becton Dickinson®, United States), more or less supplemented with PMBN. The PMBN concentrations range from 0 up to concentrations equivalent to one fifth of the MIC of PMBN (⅕ MICPMBN).
(§3) Using a swab and the Retro C80™ rota-plater (bioMérieux, France), the culture media were inoculated with the bacteria, originating from an inoculum of 0.5 McFarland, prepared in 0.85% NaCl solution from colonies subcultured the day before on MH II agar.
(§4) The various Etest® strips are then deposited on the surface of the culture media. After 16 to 20 hours of incubation at 35° C., the MICS were read.

[3] = tested on: Enterobacter aerogenes EA 15038 (porin+); assay: as above; assay type: cell-based; settings: Klebsiella aerogenes, EA 15038 (porin+), read-out: MIC
Protocol: as §1, §2, §3, §4

[4] = tested on: E. cloacae 1008073 (VIM-1 producer); assay: as above; assay type: cell-based
Protocol: as §1, §2, §3, §4
(§5) To do this, imipenem and ertapenem were used as indicator carbapenems. Non-inhibitory concentrations of PMBN, equivalent to concentrations of one tenth ( 1/10), one eighth (⅛) and one fifth (⅕) of the MIC of PMBN, were applied.

[5] = tested on: K. pneumoniae 1012335 (OXA-48 producer); assay: as above; assay type: cell-based
Protocol: as §1, §2, §3, §4, §5

C. freundii 0403012 = assay: as above; assay type: cell-based
Protocol: as §1, §2, §3, §4, §5

[6] = tested on: E. coli 1008077 (VIM-1 producer); assay: as above; assay type: cell-based
Protocol: as §1, §2, §3, §4, §5

[7] = tested on: K. pneumoniae 1108006 (KPC-2 producer); assay: as above; assay type: cell-based
Protocol: as §1, §2, §3, §4, §5

[8] = tested on: K. pneumoniae 1108007 (VIM-1 producer); assay: as above; assay type: cell-based
Protocol: as §1, §2, §3, §4, §5

[9] = tested on: E. cloacae 0901026 (KPC-2 producer); assay: as above; assay type: cell-based
Protocol: as §1, §2, §3, §4, §5

[10] = tested on: K. pneumoniae 1108001 (KPC-2 producer); assay: as above; assay type: cell-based
Protocol: as §1, §2, §3, §4, §5

E. cloacae 9304026 = assay: as above; assay type: cell-based
Protocol: as §1, §2, §3, §4, §5

[11] = tested on: E. cloacae 1101172 (NDM producer); assay: as above; assay type: cell-based
Protocol: as §1, §2, §3, §4, §5

[12] = tested on: E. cloacae 1008079 (IMP-1 producer); assay: as above; assay type: cell-based
Protocol: as §1, §2, §3, §4, §5

[13] = tested on: E. cloacae 1008096 (VIM-1 producer); assay: as above; assay type: cell-based
Protocol: as §1, §2, §3, §4, §5

C[C@@H](O)[C@H]1C(=O)N2C(C(=O)O)=C(SCCN=CN)C[C@H]12 [IM, imipenem]
reliability of a negative prognosis with regard to resistance by membrane impermeability ([1]; general premise): 87%
reliability of a positive prognosis with regard to resistance by membrane impermeability ([1]; general premise): 73%
reliability of a negative prognosis with regard to resistance by membrane impermeability ([1]; refined premise): 77%
reliability of a positive prognosis with regard to resistance by membrane impermeability ([1]; refined premise): 95%
MIC ([2]; [PMBN] 0): 0.03 µg/mL
MIC ([2]; [PMBN] MIC/5): 0.03 µg/mL
MIC ([2]; [PMBN] MIC/8): 0.06 µg/mL
MIC ([2]; [PMBN] MIC/10): 0.06 µg/mL
MIC ([3]; [PMBN] 0): 0.25 µg/mL
MIC ([3]; [PMBN] MIC/5): 0.25 µg/mL
MIC ([3]; [PMBN] MIC/8): 0.5 µg/mL
MIC ([3]; [PMBN] MIC/10): 0.5 µg/mL
MIC ([4]; [PMBN] 0): 0.25 µg/mL
MIC ([4]; [PMBN] MIC/5): 0.25 µg/mL
MIC ([4]; [PMBN] MIC/8): 0.25 µg/mL
MIC ([4]; [PMBN] MIC/10): 0.25 µg/mL
MIC ([5]; [PMBN] 0): 2 µg/mL
MIC ([5]; [PMBN] MIC/5): 2 µg/mL
MIC ([5]; [PMBN] MIC/8): 2 µg/mL
MIC ([5]; [PMBN] MIC/10): 2 µg/mL
MIC (C. freundii 0403012; [PMBN] 0): 4 µg/mL
MIC (C. freundii 0403012; [PMBN] MIC/5): 1 µg/mL
MIC (C. freundii 0403012; [PMBN] MIC/8): 1 µg/mL
MIC (C. freundii 0403012; [PMBN] MIC/10): 2 µg/mL
MIC ([6]; [PMBN] 0): 16 µg/mL
MIC ([6]; [PMBN] MIC/5): 16 µg/mL
MIC ([6]; [PMBN] MIC/8): 16 µg/mL
MIC ([6]; [PMBN] MIC/10): 8 µg/mL
MIC ([7]; [PMBN] 0): 32 µg/mL
MIC ([7]; [PMBN] MIC/5): 32 µg/mL
MIC ([7]; [PMBN] MIC/8): 64 µg/mL
MIC ([7]; [PMBN] MIC/10): 32 µg/mL
MIC ([8]; [PMBN] 0): 32 µg/mL
MIC ([8]; [PMBN] MIC/5): 16 µg/mL
MIC ([8]; [PMBN] MIC/8): 16 µg/mL
MIC ([8]; [PMBN] MIC/10): 16 µg/mL
MIC ([9]; [PMBN] 0): 16 µg/mL
MIC ([9]; [PMBN] MIC/5): 8 µg/mL
MIC ([9]; [PMBN] MIC/8): 8 µg/mL
MIC ([9]; [PMBN] MIC/10): 16 µg/mL
MIC ([10]; [PMBN] 0): 8 µg/mL
MIC ([10]; [PMBN] MIC/5): 4 µg/mL
MIC ([10]; [PMBN] MIC/8): 8 µg/mL
MIC ([10]; [PMBN] MIC/10): 8 µg/mL
MIC (E. cloacae 9304026; [PMBN] 0): 8 µg/mL
MIC (E. cloacae 9304026; [PMBN] MIC/5): 4 µg/mL
MIC (E. cloacae 9304026; [PMBN] MIC/8): 4 µg/mL
MIC (E. cloacae 9304026; [PMBN] MIC/10): 4 µg/mL
MIC ([11]; [PMBN] 0): 4 µg/mL
MIC ([11]; [PMBN] MIC/5): 4 µg/mL
MIC ([11]; [PMBN] MIC/8): 16 µg/mL
MIC ([11]; [PMBN] MIC/10): 8 µg/mL
MIC ([12]; [PMBN] 0): 2 µg/mL
MIC ([12]; [PMBN] MIC/5): 2 µg/mL
MIC ([12]; [PMBN] MIC/8): 2 µg/mL
MIC ([12]; [PMBN] MIC/10): 4 µg/mL
MIC ([13]; [PMBN] 0): 4 µg/mL
MIC ([13]; [PMBN] MIC/5): 4 µg/mL
MIC ([13]; [PMBN] MIC/8): 8 µg/mL
MIC ([13]; [PMBN] MIC/10): 8 µg/mL

Source: US20180155757A1, “IDENTIFICATION OF BACTERIA THAT ARE RESISTANT TO CARBAPENEMS BY MEMBRANE IMPERVIOUSNESS” (BIOMÉRIEUX, priority 2015, published 2018)
